Measured values published in the supplement of paper PMC9663587.

Legend:
[1] = compound: O=C(c1cc(Cc2n[nH]c(=O)c3ccccc23)ccc1F)N1CCN(C(=O)C2CC2)CC1 [Olaparib/AZD2281]
[2] = compound: Nc1cc(C(F)(F)F)c(-c2cc(N3CCOCC3)nc(N3CCOCC3)n2)cn1 [Buparlisib/NVP-BKM120]
[3] = compound: CNc1nc(-c2ccc3c(N)n[nH]c3c2)cc(N2C[C@@H](C(=O)NC3CCCCC3)CC[C@H]2C)n1
[4] = compound: Cc1nc(NC(=O)N2CCC[C@H]2C(N)=O)sc1-c1ccnc(C(C)(C)C(F)(F)F)c1 [Alpelisib/BYL719]
[5] = compound: CCCCOc1c(C(=O)c2c(F)cc(C)cc2F)c[nH]c2nncc1-2
[6] = compound: O=C1NC(=O)[C@@H](c2cn3c4c(cccc24)CCC3)[C@@H]1c1c[nH]c2ccccc12 [Tivantinib/ARQ197]
[7] = compound: COc1cc2c(Oc3ccc4[nH]c(C)cc4c3F)ncnc2cc1OCCCN1CCCC1 [Cediranib/AZD2171]
[8] = compound: CCc1cnn2c(NCc3ccc[n+]([O-])c3)cc(N3CCCC[C@H]3CCO)nc12
[9] = compound: C[C@@H]1COCCN1c1cc(C2([S@](C)(=N)=O)CC2)nc(-c2cc[nH]c3nccc2-3)n1 [AZD6738]
[10] = compound: CN(C)C(=O)c1cc2cnc(Nc3ccc(N4CCNCC4)cn3)nc2n1C1CCCC1 [LEE011/Ribociclib]
[11] = compound: C=CCn1c(=O)c2cnc(Nc3ccc(N4CCN(C)CC4)cc3)nc2n1-c1cccc(C(C)(C)O)n1 [AZD1775]
[12] = compound: CN(C)CC[C@H](CSc1ccccc1)Nc1ccc(S(=O)(=O)NC(=O)c2ccc(N3CCN(Cc4ccccc4-c4ccc(Cl)cc4)CC3)cc2)cc1[N+](=O)[O-] [ABT-737]
[13] = compound: CCC1=CN=CN=C1N2CCN(CC2)CC3=NC4=C(N3)C=C(C=C4)C(F)(F)F
[14] = compound: CC(C)Nc1cc(-c2c[nH]c(C(=O)N[C@H](CO)c3cccc(Cl)c3)c2)c(Cl)cn1 [BVD523]
[15] = compound: COc1ccc2c(c1)[C@]1(C[C@H]1c1ccc3c(/C=C/c4ccc(CN5C[C@@H](C)O[C@@H](C)C5)cc4)n[nH]c3c1)C(=O)N2
[16] = compound: CN(C)C/C=C/C(=O)NC1=CC=C(C=C1)C(=O)NC2=CC=CC(=C2)NC3=NC=NC(=C3)C4=CNC5=CC=CC=C54 [THZ-P1-2]
[17] = compound: CC(=O)O[C@H]1C(=O)[C@@]2(C)[C@H]([C@H](OC(=O)c3ccccc3)[C@]3(O)C[C@H](OC(=O)[C@H](O)[C@@H](NC(=O)c4ccccc4)c4ccccc4)C(C)=C1C3(C)C)[C@]1(OC(C)=O)CO[C@@H]1C[C@@H]2O [Paclitaxel]
[18] = compound: CCNC(=O)c1noc(-c2cc(C(C)C)c(O)cc2O)c1-c1ccc(CN2CCOCC2)cc1 [Luminespib/NVP-AUY922]
[19] = compound: CN1CC[C@H](c2c(O)cc(O)c3c(=O)cc(-c4ccccc4Cl)oc23)[C@H](O)C1 [Flavopiridol]
[20] = compound: CN(C)C/C=C/C(=O)Nc1ccc(C(=O)Nc2cccc(Nc3ncc(Cl)c(-c4c[nH]c5ccccc45)n3)c2)cc1 [THZ1]
[21] = compound: CN1CCN(CCOc2cc(OC3CCOCC3)c3c(Nc4c(Cl)ccc5c4OCO5)ncnc3c2)CC1 [Saracatinib/AZD0530]
[22] = compound: C1=CC2=C(C=CC(=C2)C=C3C(=O)NC(=NCC4=CC=CS4)S3)N=C1 [R0-3306]
[23] = compound: CC1=CN2C(=O)C=C(N=C2C(=C1)C(C)NC3=CC=CC=C3)N4CCOCC4 [TGX221]
[24] = compound: Cc1nn(C)c(COc2ccc(N3CCN(S(=O)(=O)N(C)C)CC3)cc2)c1-c1cccc2c(CCCOc3cccc4ccccc34)c(C(=O)O)n(CCN3CCOCC3)c12
[25] = compound: CN1CCN(C(=O)c2ccc3cc(CCNc4ncnc5ccc(C#N)cc45)ccc3c2)CC1 [senexin b]
[26] = compound: C1=CC(=CC(=C1)N2C(=O)C=CC3=CN=C4C=CC(=CC4=C32)C5=CN=C(C=C5)N)C(F)(F)F [Torin2]
[27] = compound: CCN1CCN(Cc2ccc(Nc3ncc(F)c(-c4cc(F)c5nc(C)n(C(C)C)c5c4)n3)nc2)CC1
[28] = compound: NC1(C(=O)N[C@@H](CCO)c2ccc(Cl)cc2)CCN(c2nc[nH]c3nccc2-3)CC1 [AZD5363]
[29] = compound: COc1cc2nccc(Oc3ccc(NC(=O)C4(C(=O)Nc5ccc(F)cc5)CC4)cc3)c2cc1OC [Cabozantinib]
[30] = compound: CC(C)NC[C@@H](C(=O)N1CCN(c2ncnc3c2[C@H](C)C[C@H]3O)CC1)c1ccc(Cl)cc1 [Ipatasertib/GDC0068]
[31] = compound: CC1(CCN(CC1)C2=CN=C(C(=N2)N)C3=C(C(=CC=C3)Cl)Cl)N [SHP099]
[32] = compound: CS(=O)(=O)N1CCN(Cc2cc3nc(-c4cccc5[nH]ncc45)nc(N4CCOCC4)c3s2)CC1 [Pictilisib/GDC0941]
[33] = compound: NC(=O)Nc1cc(-c2cccc(F)c2)sc1C(=O)N[C@H]1CCCNC1 [AZD7762]
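Also: breast cancer and non-malignant breast epithelial cell lines, Deep Dye Drop or Dye Drop imaging, nine half-log doses, GR normalized to time-zero plates and DMSO-only controls.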

Cell Line | GR50, 72 h [1] | GR50, 72 h [2] | GR50, 72 h [3] | GR50, 72 h [4] | GR50, 72 h [5] | GR50, 72 h [6] | GR50, 72 h [7] | GR50, 72 h [8] | GR50, 72 h [9] | GR50, 72 h [10] | GR50, 72 h [11] | GR50, 72 h [12] | GR50, 72 h [13] | GR50, 72 h [14] | GR50, 72 h [15] | GR50, 72 h [16] | GR50, 72 h [17] | GR50, 72 h [18] | GR50, 72 h [19] | GR50, 72 h [20] | GR50, 72 h [21] | GR50, 72 h [22] | GR50, 72 h [23] | GR50, 72 h [24] | GR50, 72 h [25] | GR50, 72 h [26] | GR50, 72 h [27] | GR50, 72 h [28] | GR50, 72 h [29] | GR50, 72 h [30] | GR50, 72 h [31] | GR50, 72 h [32] | GR50, 72 h [33]
HCC38 | 8.42 µM | 1.27 µM | > 10 µM | > 10 µM | 0.00391 µM | 0.309 µM | 1.59 µM | 0.0126 µM | 2 µM | 0.537 µM | 0.00378 µM | 0.998 µM | > 10 µM | 4.75 µM | 0.00325 µM | 4.23 µM | 0.00147 µM | 0.00714 µM | 0.139 µM | 0.0239 µM | > 10 µM | 7.29 µM | > 10 µM | > 10 µM | > 10 µM | 0.0105 µM | 0.0446 µM | > 10 µM | 7.6 µM | > 10 µM | > 10 µM | 6.55 µM | 0.00948 µM
SKBR3 | > 10 µM | 0.14 µM | 2.11 µM | 0.485 µM | 0.0869 µM | 0.273 µM | 6.2 µM | 0.00682 µM | 0.845 µM | 6.14 µM | 0.206 µM | > 10 µM | > 10 µM | 6.46 µM | 0.00188 µM | 4.25 µM | 0.00191 µM | 0.00228 µM | 0.132 µM | 0.014 µM | 4.92 µM | 4.77 µM | > 10 µM | > 10 µM | > 10 µM | 0.00361 µM | 0.0353 µM | 2.76 µM | 9.69 µM | 3.32 µM | > 10 µM | 0.114 µM | 0.0203 µM
MDAMB468 | 7.92 µM | 0.832 µM | > 10 µM | > 10 µM | 0.133 µM | 0.307 µM | 3.92 µM | 0.0156 µM | > 10 µM | > 10 µM | 0.25 µM | 6.03 µM | 4.17 µM | 1.64 µM | 0.00342 µM | 3.59 µM | 0.00135 µM | 0.00483 µM | 0.173 µM | 0.0236 µM | 4.96 µM | 4.57 µM | > 10 µM | > 10 µM | 2.04 µM | 0.016 µM | 2.34 µM | > 10 µM | 8.97 µM | 2.36 µM | > 10 µM | 2.33 µM | 0.287 µM
SUM44PE | > 10 µM | 0.412 µM | 4.21 µM | 0.65 µM | < 0.001 µM | 0.0449 µM | 9.59 µM | 0.00834 µM | 0.549 µM | 2.54 µM | 0.237 µM | 4.3 µM | 6.53 µM | 2.7 µM | 0.000792 µM | 0.196 µM | 0.00153 µM | 0.00453 µM | 0.0276 µM | 0.00443 µM | 6.6 µM | 1.91 µM | > 10 µM | 3.31 µM | 1.77 µM | 0.00502 µM | 0.0473 µM | 0.0475 µM | 5.47 µM | 0.27 µM | > 10 µM | 0.435 µM | 0.0479 µM
BT20 | > 10 µM | 0.638 µM | > 10 µM | 2.03 µM | 0.002 µM | 0.473 µM | 5.69 µM | 0.0185 µM | 5.85 µM | 0.359 µM | 1.9 µM | > 10 µM | > 10 µM | > 10 µM | 0.00274 µM | 6.01 µM | 0.00202 µM | 0.00597 µM | 0.11 µM | 0.499 µM | 4.37 µM | 5.2 µM | > 10 µM | > 10 µM | 2.3 µM | 0.0089 µM | 0.0613 µM | 2 µM | 5.35 µM | 0.645 µM | > 10 µM | 0.904 µM | 1.1 µM
SUM159 | > 10 µM | 2.21 µM | > 10 µM | > 10 µM | 0.159 µM | 0.408 µM | > 10 µM | 0.0169 µM | 9.98 µM | 9.31 µM | 2.05 µM | > 10 µM | > 10 µM | 1.91 µM | 0.00426 µM | 6.79 µM | 0.00542 µM | 0.00945 µM | 0.127 µM | 0.361 µM | > 10 µM | 7.13 µM | > 10 µM | > 10 µM | > 10 µM | 0.0417 µM | 0.565 µM | 9.8 µM | 7.15 µM | > 10 µM | > 10 µM | 4.53 µM | 0.834 µM
EVSAT | > 10 µM | 1.04 µM | 1.77 µM | > 10 µM | 1.45 µM | 0.373 µM | 9.9 µM | 0.0263 µM | > 10 µM | > 10 µM | 3.96 µM | > 10 µM | > 10 µM | > 10 µM | 0.00784 µM | > 10 µM | 0.00167 µM | 0.00716 µM | 0.369 µM | 0.0571 µM | 2.69 µM | 5.54 µM | 1.39 µM | > 10 µM | > 10 µM | 0.015 µM | 1.25 µM | 0.0128 µM | > 10 µM | 0.256 µM | > 10 µM | 0.621 µM | 1.42 µM
